According to US11191732B2, “Glutaminase inhibitor discovery and nanoparticle-enhanced delivery for cancer therapy” (The Johns Hopkins University, priority 2014, dated 2021):
Blank lines part the entries; values can stand above or below the compound they belong to.

What was measured:
GLS = GLS (Homo sapiens (Human), UniProt O94925); assay: Inhibition of GLS (established radioactive assay); assay type: biochemical
Source text: All new synthetic compounds can be tested for their ability to inhibit GLS using an already established radioactive assay.

[1] = system: KRAS-mutant human pancreatic cancer cells; assay: Growth of glutamine-addicted pancreatic cancer cells with BPTES; assay type: cell-based; conditions: full DMEM media, BPTES dissolved in DMSO
Experimental: Cells were grown at 37° C. in a 5% (v/v) CO2 and 95% (v/v) air incubator in full DMEM media.

[2] = system: glutamine-dependent JHU094 pancreatic patient tumor; assay: JHU094 pancreatic patient tumor growth in vivo; design: species or system mice; conditions: nanoparticle 1.2 mg vs free 0.3125 mg in 100 μl, IV
Source text: (§1) DMSO solution per dose, as this was is the highest dose that could be administered based on solubility and injection volume limitations.

[3] = BPTES levels in pancreatic tumors after intravenous administration (LC-MS/MS); assay type: in vivo, mice; conditions: all time points, limit of detection 10 nM
Source text: BPTES levels were quantified by LC-MS/MS.
as §1

Metabolic stability = assay type: in vitro ADME; conditions: oxidation of the sulfide moiety
Source text: In compound 4, the terminal aminothiadiazole ring was replaced with a secondary amide, presenting a new scaffold for GLS inhibitors.

[4] = system: resected pancreatic cancer; conditions: six cycles adjuvant, cited from earlier work
[5] = system: resected pancreatic cancer; conditions: 6 months adjuvant treatment after complete macroscopic resection; cited from earlier work
Panc265 tumor = assay: Panc265 patient-derived orthotopic pancreatic cancer xenograft tumor growth; assay type: in vivo; conditions: BPTES nanoparticles 1.2 mg every 3 days IV; gemcitabine 625 μg twice per week IP; 4 weeks

Sequence of GLS (O94925 73-669): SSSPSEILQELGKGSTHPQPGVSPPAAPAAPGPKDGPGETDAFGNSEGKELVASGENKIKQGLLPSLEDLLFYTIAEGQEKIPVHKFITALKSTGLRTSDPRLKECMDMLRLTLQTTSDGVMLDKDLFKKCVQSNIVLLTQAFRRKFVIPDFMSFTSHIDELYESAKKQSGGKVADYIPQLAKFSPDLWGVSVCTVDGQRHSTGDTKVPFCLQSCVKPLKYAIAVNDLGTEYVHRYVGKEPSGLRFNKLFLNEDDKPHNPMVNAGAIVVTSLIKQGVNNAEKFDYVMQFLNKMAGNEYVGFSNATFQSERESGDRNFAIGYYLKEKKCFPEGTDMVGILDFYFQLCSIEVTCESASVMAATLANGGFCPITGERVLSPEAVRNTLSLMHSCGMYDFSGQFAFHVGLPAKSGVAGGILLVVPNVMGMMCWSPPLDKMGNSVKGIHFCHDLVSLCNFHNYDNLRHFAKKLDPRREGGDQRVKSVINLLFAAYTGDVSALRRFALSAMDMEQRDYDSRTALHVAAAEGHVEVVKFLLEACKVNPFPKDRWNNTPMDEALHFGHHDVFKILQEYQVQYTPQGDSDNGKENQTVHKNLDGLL

Compound: O=C(CCCCc1nnc(NC(=O)Cc2ccccc2)s1)NCCN1CCCC1 [Compound 4]
IC50 (GLS): 4600 nM

Compound: Nc1nnc(CCCCc2nnc(NC(=O)Cc3ccccc3)s2)s1 [Compound 3]
IC50 (GLS): 1900 nM

Compound: Nc1nnc(CCSCCc2nnc(N)s2)s1 [Compound 2]
IC50 (GLS): 100000 nM | metabolic stability (Metabolic stability): metabolically unstable

Compound: Nc1ccn([C@@H]2O[C@H](CO)[C@@H](O)C2(F)F)c(=O)n1 [gemcitabine]
survival rate at 10 years ([4]; observation-alone arm 7.7%): 12.2% | survival rate at 5 years ([4]; observation-alone arm 10.4%): 20.7% | Median OS [5]: 23.6 months | reduction in tumor growth (Panc265 tumor): 40-50%

Further lines, with some results ahead:

BPTES level in tumor [3]: < 10 nM
Compound: O=C(Cc1ccccc1)Nc1nnc(CCSCCc2nnc(NC(=O)Cc3ccccc3)s2)s1 [BPTES, bis-2-[5-(phenylacetamido)-1,3,4-thiadiazol-2-yl]ethyl sulfide]
effect on growth of glutamine-addicted pancreatic cancers [1]: inhibitory to their growth | effect on tumor growth [2]: no statistical benefit

IC50 (GLS): 80 nM
Compound: O=C(Cc1ccccc1)Nc1nnc(CCCCc2nnc(NC(=O)Cc3ccc(O)cc3)s2)s1 [Compound 5]

IC50 (GLS): 100 nM
Compound: O=C(O)CCCCC(=O)Nc1nnc(CCCCc2nnc(NC(=O)Cc3ccccc3)s2)s1 [Compound 6]

IC50 (GLS): 100 nM
Compound: O=C(O)CCCCCC(=O)Nc1nnc(CCCCc2nnc(NC(=O)Cc3ccccc3)s2)s1 [Compound 7]
